Laboratory results taken from US20230285402A1, “Compositions and Methods of Modulating Short-Chain Dehydrogenase Activity” (BOARD OF REGENTS OF THE UNIVERSITY OF TEXAS SYSTEM, priority 2013, published 2023).

Tests used:
A549 cells = assay: PGE2 in medium of IL1-beta stimulated A549 cells; format: cell-based
Hepatocyte stability = format: in vitro ADME; settings: in words
Procedure: (§1) Time to inhibition refers to the time needed to inhibit the generation of NADH by 15-PGDH from the moment with drug is added into the reaction mix. Delta Tm refers to the shift in melting temperature of recombinant 15-PGDH in the presence of drug (with cofactor NADH also present). Concentration of Full Cell Line Reporter Induction refers to the concentration of drug that needs to be added to reporter cell line to achieve maximal induction of the 15-PGDH-luciferase gene fusion reporter cassette, as measured by luciferase assays. Hepatocyte stability refers to the half-life of compound in the presence of hepatocytes in culture. Toxicity refers to the concentration of compound needed to decrease cell numbers in a cell culture assay.

[1] = tested on: cell numbers in a cell culture assay; assay: Toxicity in cell culture assay (decrease of cell numbers); format: cell-based; settings: concentration needed to decrease cell numbers
Procedure: as §1

C57BL/6J mice [2] = assay: Bone marrow of C57BL/6J mice treated IP; format: in vivo, mouse; settings: 5 mg/kg or 20 mg/kg IP
Source text: Experimental conditions are noted on the figure.

C57BL/6J mice [3] = assay: Competitive transplant of marrow from treated CD45.2 donor mice; format: in vivo, mouse; settings: donor 5 mg/kg IP daily for 3 doses; weeks 12 and 16
Procedure: On day 3 mice were sacrificed, marrow flushed and mixed at a 1:1 ratio with vehicle treated CD45.1 marrow. 2 million whole BM cells were injected into the tail vein of lethally irradiated CD45.1 mice and percent chimerism measured via flow cytometry at weeks 8, 12, 16.

C57BL/6J female mice = assay: Survival after acetaminophen (Tylenol) 600 mg/kg IP (LD50), C57BL/6J female mice, SW033291 5 mg/kg IP; format: in vivo, mouse; settings: for number of mice surviving: first dose immediately after Tylenol
mice = assay: Bone marrow transplant after 11Gy, SW033291 5 mg/kg IP twice daily: survival and blood/marrow counts; format: in vivo, mouse
SCF = assay: Gene expression in bone marrow cells of treated mice: SCF; format: in vivo, mouse; settings: 10 mg/kg IP twice daily, 5 doses
Procedure: 2 hours following the last dose bone marrow is harvested and sorted into SKL marked cells that are hematopoietic stem cell enriched and into CD45(−) cells that are bone marrow stroma cells. RNA was extracted and gene expression determined relative to levels in mice injected with vehicle control.

[4] = day 5 after transplant, 500,000 donor cells

## CCCC[S+]([O-])c1sc2nc(-c3cccs3)cc(-c3ccccc3)c2c1N (centres unmarked) [SW033291, 2-(butylsulfinyl)-4-phenyl-6-(thiophen-2-yl)thieno[2,3-b]pyridin-3-amine]
A549 cells; 100 nM drug
  rank of PGE2 level in medium: next highest level of PGE2
A549 cells; IL1-beta 23 hours, compound for last 5 hours
  15-PGDH activity in cells as reflected in PGE2 levels: clear inhibition of 15-PGDH activity
A549 cells; IL-1β 16 h, then compound 8 h
  highest PGE2 level in medium: 3000 pg/mL
Hepatocyte stability
  Hepatocyte stability: Stable > couple hrs
[1]
  Toxicity: >10 µM
C57BL/6J mice [2]
  increase in numbers of hematopoietic colonies: approximately 30%
  percent of Sca1+/c-Kit+ cells in lineage negative (SKL) cells: unchanged
C57BL/6J mice [3]
  percent blood chimerism of CD45.2 marked cells: significantly increased
C57BL/6J female mice; 0 hrs, 1 dose/daily, cohort of 6
  number of mice surviving: 6
C57BL/6J female mice; 0 hrs, 2 dose/daily, cohort of 6
  number of mice surviving: 6
C57BL/6J female mice; 0 hrs, bid from 3 hours prior to acetaminophen, 6 doses, cohort of 6
  Survival (number of mice): 6
C57BL/6J female mice; 0 hrs, bid from 48 hours prior to acetaminophen, 9 doses, cohort of 12
  Survival (number of mice): 12
C57BL/6J female mice; 16 hr, 1 dose/daily, cohort of 6
  number of mice surviving: 6
C57BL/6J female mice; 16 hr, 2 dose/daily, cohort of 6
  number of mice surviving: 6
C57BL/6J female mice; 16 hr, bid from 3 hours prior to acetaminophen, 6 doses, cohort of 6
  Survival (number of mice): 6
C57BL/6J female mice; 16 hr, bid from 48 hours prior to acetaminophen, 9 doses, cohort of 12
  Survival (number of mice): 12
C57BL/6J female mice; 24 hrs, 1 dose/daily, cohort of 6
  number of mice surviving: 6
C57BL/6J female mice; 24 hrs, 2 dose/daily, cohort of 6
  number of mice surviving: 6
C57BL/6J female mice; 24 hrs, bid from 3 hours prior to acetaminophen, 6 doses, cohort of 6
  Survival (number of mice): 5
C57BL/6J female mice; 24 hrs, bid from 48 hours prior to acetaminophen, 9 doses, cohort of 12
  Survival (number of mice): 12
C57BL/6J female mice; 40 hrs, bid from 48 hours prior to acetaminophen, 9 doses, cohort of 12
  Survival (number of mice): 11
C57BL/6J female mice; 48 hrs, 2 dose/daily, cohort of 6
  number of mice surviving: 3
C57BL/6J female mice; 48 hrs, bid from 3 hours prior to acetaminophen, 6 doses, cohort of 6
  Survival (number of mice): 3
C57BL/6J female mice; 48 hrs, bid from 48 hours prior to acetaminophen, 9 doses, cohort of 12
  Survival (number of mice): 10
C57BL/6J female mice; 64 hrs, 2 dose/daily, cohort of 6
  number of mice surviving: 3
C57BL/6J female mice; 64 hrs, bid from 3 hours prior to acetaminophen, 6 doses, cohort of 6
  Survival (number of mice): 3
C57BL/6J female mice; 64 hrs, bid from 48 hours prior to acetaminophen, 9 doses, cohort of 12
  Survival (number of mice): 10
C57BL/6J female mice; 72 hrs, 2 dose/daily, cohort of 6
  number of mice surviving: 3
C57BL/6J female mice; 72 hrs, bid from 3 hours prior to acetaminophen, 6 doses, cohort of 6
  Survival (number of mice): 3
C57BL/6J female mice; 72 hrs, bid from 48 hours prior to acetaminophen, 9 doses, cohort of 12
  Survival (number of mice): 10
C57BL/6J female mice; 88 hr, 2 dose/daily, cohort of 6
  number of mice surviving: 3
C57BL/6J female mice; 88 hr, bid from 3 hours prior to acetaminophen, 6 doses, cohort of 6
  Survival (number of mice): 3
C57BL/6J female mice; 88 hr, bid from 48 hours prior to acetaminophen, 9 doses, cohort of 12
  Survival (number of mice): 10
C57BL/6J female mice; 96 hr, 2 dose/daily, cohort of 6
  number of mice surviving: 3
C57BL/6J female mice; 96 hr, bid from 3 hours prior to acetaminophen, 6 doses, cohort of 6
  Survival (number of mice): 3
C57BL/6J female mice; 96 hr, bid from 48 hours prior to acetaminophen, 9 doses, cohort of 12
  Survival (number of mice): 10
C57BL/6J female mice; 112 hr, 2 dose/daily, cohort of 6
  number of mice surviving: 3
C57BL/6J female mice; 112 hr, bid from 3 hours prior to acetaminophen, 6 doses, cohort of 6
  Survival (number of mice): 3
C57BL/6J female mice; 112 hr, bid from 48 hours prior to acetaminophen, 9 doses, cohort of 12
  Survival (number of mice): 10
C57BL/6J female mice; 120 hr, 2 dose/daily, cohort of 6
  number of mice surviving: 3
C57BL/6J female mice; 120 hr, bid from 3 hours prior to acetaminophen, 6 doses, cohort of 6
  Survival (number of mice): 3
C57BL/6J female mice; 120 hr, bid from 48 hours prior to acetaminophen, 9 doses, cohort of 12
  Survival (number of mice): 10
C57BL/6J female mice; dosing begun immediately following acetaminophen, once or twice daily, 0-120 hours
  survival vs control mice: No difference
mice; 100,000 donor cells
  median survival vs control: approximate doubling of median survival
mice; 200,000 donor cells
  survival at 30 days: all mice receiving 200,000 donor cells plus SW033291 survived
mice; 500,000 donor cells
  survival at 30 days: all survived
mice; [4]
  total platelet count vs control: significantly higher total platelet count
  total white count vs control: significantly higher total white count
mice; day 8 after transplant, control 39,500
  platelet count: 77,000
mice; day 12 after transplant
  total white counts vs control: significantly greater total white counts
mice; day 12 after transplant, control 8.3
  hemoglobin level: 11.58
mice; day 12 after transplant, control 125
  neutrophil count: 332
mice; day 18 after transplant
  lymphocyte count vs control: significantly higher
  platelet counts vs control: significantly higher platelet counts
  total white count vs control: significantly higher total white count
mice; day 18 after transplant, control 365
  neutrophil count: 835
mice; day 18 after transplant, control 967
  mean SKL marked bone marrow cells: 4127
SCF; CD45(−) bone marrow stromal cells
  induction of SCF: greater than 4 fold
SCF; bone marrow SKL cells
  induction in RNA expression of SCF: 3 fold
